Reference: patent US11242337B2, “Compounds useful for treating gastrointestinal tract disorders” (Ardelyx, Inc., priority 2017, dated 2022)

Assays:
[1] = system: absorption of sodium from the intestinal lumen; experiment: Inhibition of intestinal sodium absorption in rats; assay type: in vivo, Sprague Dawley rats; conditions: 13-hours post-dose; for response vs control in vivo at 0.03 mg/kg: oral gavage 0.03 mg/kg; for response vs control in vivo at 0.1 mg/kg: oral gavage 0.1 mg/kg; for FFS (1-5): rats, group median fecal form score, 1 normal pellet to 5 liquid fecal streams; for response vs control in vivo at 0.3 mg/kg: oral gavage 0.3 mg/kg
Method: Urinary sodium excretion and fecal form were measured to assess the ability of selected example compounds to inhibit the absorption of sodium from the intestinal lumen. Eight-week old, male, Sprague Dawley rats were purchased from Envigo (Livermore, Calif.), were housed 2 per cage and acclimated for at least 48 hours before study initiation. Animals were fed. Harlan Teklad Global TD.160470 rodent chow (Madison, Wis.), standard laboratory rodent chow Harlan Teklad Global 2018 with the addition of 0.4% inorganic phosphorous. Animals had ad libitum access to food and water for the duration of the study and were maintained in a temperature and humidity controlled room on a standard light/dark cycle of 6 AM to 6 PM. On the day of study initiation, rats (n=5/group) were dosed by oral gavage with test compound or vehicle (3 mM HCl, 0.01% Tween80) at a dose volume of […]. Immediately after dose administration animals were placed in individual metabolic cages. At 13-hours post-dose, urine samples were collected and fecal form was assessed. In addition, the weight of food consumed over the 13-hour period was measured and recorded. Fecal forms were scored according to a common scale associated with increasing fecal water to the wettest observation in the cage's collection funnel (1, normal pellet; 2, pellet adhering to sides of collection funnel due to moisture; 3, loss of normal pellet shape; 4, complete loss of shape with a blotting pattern; 5, liquid fecal streams evident). Fecal form score (FFS) was calculated for each group as the median of each individual rat's FFS within the group and reported in Table 7. Fecal samples were dried using a lyophilizer for at least 3 days, following which dry weight was recorded and fecal fluid content was calculated based on the difference between the wet and dry stool weights. Fecal fluid content was calculated as a change from the vehicle group mean. For urine samples, the volumes were determined gravimetrically. Urine samples were analyzed on an ion chromatography system (Thermo Fisher ICS-3000 or ICS-5000+) coupled with conductivity detectors. Chromatographic separation of cations was performed using an IonPac CS12A (Thermo Fisher) 2×250 mm analytical column with an isocratic elution using 25 mM methanesulfonic acid. Concentrations were interpolated from a standard curve (prepared in 10 mM HCl) for sodium based on retention time and peak area. Thirteen-s-hour urinary sodium excretion (mg/13-hours) was calculated by multiplying urinary sodium concentration by 13-hour urine volume. The urinary sodium excretion of compound treatment was normalized to dietary sodium intake and expressed as a percentage of the vehicle mean.

gastrointestinal transit = experiment: Restoration of gastrointestinal motility in opioid induced constipation (loperamide); assay type: in vivo, mice; conditions: loperamide s.c., Evans Blue small intestinal transit 30 minutes
Method: Approximately eight-week old, female, CD1 […] are purchased from Envigo (Livermore, Calif.), are housed 4 per cage and acclimated for at least 48 hours before study initiation. Animals are fed standard laboratory rodent chow Harlan Teklad Global 2018 (Madison, Wis.). Animals have ad libitum access to food and water for the duration of the acclimation period and are maintained in a temperature and humidity controlled room on a standard light/dark cycle of 6 AM to 6 PM. Following an overnight fast, with free access to water, animals are dosed by oral gavage with varying doses of test compound or vehicle (3 mM HCl, 0.01% Tween80), at a dose volume of 5 mL/kg. […] For an individual animal, the length travels by the Evans Blue dye front is divided by the length of the whole small intestine, measured from the pylorus to the cecum, and multiplied by 100, to provide the distance of the small intestine travelled by the dye as a percentage.

[2] = Rattus norvegicus, Sprague Dawley rats, read-out: Urinary Na (% of Vehicle, out/in)

| Compound | response vs control in vivo at 0.003 mg/kg ([1]; Rattus norvegicus, Sprague Dawley rats, oral gavage 0.003 mg/kg, read-out: Urinary Na (% of Vehicle, out/in)) [%] | response vs control in vivo at 0.01 mg/kg ([1]; Rattus norvegicus, Sprague Dawley rats, oral gavage 0.01 mg/kg, read-out: Urinary Na (% of Vehicle, out/in)) [%] | response vs control in vivo at 0.03 mg/kg [1, 2] [%] | response vs control in vivo at 0.1 mg/kg [1, 2] [%] | FFS (1-5) ([1]; 0.003 mg/kg) | FFS (1-5) ([1]; 0.01 mg/kg) | FFS (1-5) ([1]; 0.03 mg/kg) | FFS (1-5) ([1]; 0.1 mg/kg) | % Restoration of Transit (gastrointestinal transit; oral gavage 15 mg/kg) | % Restoration of Transit (gastrointestinal transit; oral gavage 1.5 mg/kg) | % Restoration of Transit (gastrointestinal transit; oral gavage 5 mg/kg) | response vs control in vivo at 0.3 mg/kg [1, 2] [%] | FFS (1-5) ([1]; 0.3 mg/kg) |
| --- | --- | --- | --- | --- | --- | --- | --- | --- | --- | --- | --- | --- | --- |
| N#Cc1cc(Cl)cc2c1C[C@H](N1CCNCC1)[C@H]2Oc1ccc(S(=O)(=O)NCCOCCOCCNC(=O)NCCCCNC(=O)NCCOCCOCCNS(=O)(=O)c2ccc(O[C@H]3c4cc(Cl)cc(C#N)c4C[C@@H]3N3CCNCC3)cc2)cc1 [Example 41, 3-[2-(2-[2-[(4-[[(1S,2S)-6-Chloro-4-cyano-2-(piperazin-1-yl)-2,3-dihydro-1H-inden-1-yl]oxy]benzene)sulfonamido]ethoxy]ethoxy)ethyl]-1-[4-([[2-(2-[2-[(4-[[(1S,2S)-6-chloro-4-cyano-2-(piperazin-1-yl)-2,3-dihydro-1H-inden-1-yl]oxy]benzene)sulfonamido]ethoxy]ethoxy)ethyl]carbamoyl]amino)butyl]urea; bis(trifluoroacetic acid)] | > 70 | > 70 | 40 to 70 | < 40 | 2 | 2 | 2 | 5 | A (<20%) |  |  |  |  |
| N#Cc1cc(Cl)cc2c1C[C@H](N1CCNCC1)[C@H]2Oc1ccc(S(=O)(=O)NCCOCCOCCNC(=O)NCCCCNC(=O)NCCOCCOCCNS(=O)(=O)c2ccc(O[C@H]3c4cc(Cl)cc(C#N)c4C[C@@H]3N3CCNCC3)c(F)c2)cc1F [Example 43, 3-[2-(2-[2-[(4-[[(1S,2S)-6-Chloro-4-cyano-2-(piperazin-1-yl)-2,3-dihydro-1H-inden-1-yl]oxy]-3-fluorobenzene)sulfonamido]ethoxy]ethoxy)ethyl]-1-[4-([[2-(2-[2-[(4-[[(1S,2S)-6-chloro-4-cyano-2-(piperazin-1-yl)-2,3-dihydro-1H-inden-1-yl]oxy]-3-fluorobenzene)sulfonamido]ethoxy]ethoxy)ethyl]carbamoyl]amino)butyl]urea; bis(trifluoroacetic acid)] |  |  |  |  |  |  |  |  | A (<20%) | B (20-40%) | A (<20%) |  |  |
| N#Cc1cc(Cl)cc2c1C[C@H](N1CCNCC1)[C@H]2Oc1ccc(S(=O)(=O)N[C@H]2CCN(CCOCCNC(=O)NCCCCNC(=O)NCCOCCN3CC[C@H](NS(=O)(=O)c4ccc(O[C@H]5c6cc(Cl)cc(C#N)c6C[C@@H]5N5CCNCC5)cc4)C3)C2)cc1 [Example 107, 4-([(1S,2S)-6-Chloro-4-cyano-2-(piperazin-1-yl)-2,3-dihydro-1H-inden-1-yl]oxy)-N—[(S)-1-(20-[(S)-3-([4-([(1S,2S)-6-chloro-4-cyano-2-(piperazin-1-yl)-2,3-dihydro-1H-inden-1-yl]oxy)phenyl]sulfonamido)pyrrolidin-1-yl]-7,14-dioxo-3,18-dioxa-6,8,13,15-tetraazaicosyl)pyrrolidin-3-yl]benzenesulfonamide; tetra(trifluoroacetate)] |  |  | 40 to 70 | 40 to 70 |  |  | 3 | 3 |  |  |  | < 40 | 3 |
| N#Cc1cc(Cl)cc2c1C[C@H](N1CCNCC1)[C@H]2Oc1ccc(S(=O)(=O)N2CCC(NC(=O)CCCNC(=O)NCCCCNC(=O)NCCCC(=O)NC3CCN(S(=O)(=O)c4ccc(O[C@H]5c6cc(Cl)cc(C#N)c6C[C@@H]5N5CCNCC5)cc4)CC3)CC2)cc1 [Example 120, N^1,N^18-Bis(1-([4-([(1S,2S)-6-chloro-4-cyano-2-(piperazin-1-yl)-2,3-dihydro-1H-inden-1-yl]oxy)phenyl]sulfonyl)piperidin-4-yl)-6,13-dioxo-5,7,12,14-tetraazaoctadecanediamide] |  |  | > 70 | 40 to 70 |  |  | 2 | 3 |  |  |  | < 40 | 4 |
| CN(C)[C@H]1CCCN([C@H]2Cc3c(C#N)cc(Cl)cc3[C@@H]2Oc2ccc(S(=O)(=O)NCCOCCOCCNC(=O)NCCCCNC(=O)NCCOCCOCCNS(=O)(=O)c3ccc(O[C@H]4c5cc(Cl)cc(C#N)c5C[C@@H]4N4CCC[C@H](N(C)C)C4)cc3)cc2)C1 [Example 122, 4-([(1S,2S)-6-Chloro-4-cyano-2-[(S)-3-(dimethylamino)piperidin-1-yl]-2,3-dihydro-1H-inden-1-yl]oxy)-N-[26-([4-([(1S,2S)-6-chloro-4-cyano-2-[(S)-3-(dimethylamino)piperidin-1-yl]-2,3-dihydro-1H-inden-1-yl]oxy)phenyl]sulfonamido)-10,17-dioxo-3,6,21,24-tetraoxa-9,11,16,18-tetraazahexacosyl]benzenesulfonamide] |  |  | > 70 | > 70 |  |  | 2 | 2 |  |  |  | 40 to 70 | 3 |
| C[C@@H]1CN([C@H]2Cc3c(C#N)cc(Cl)cc3[C@@H]2Oc2ccc(S(=O)(=O)N[C@@H]3CCN(CCOCCNC(=O)NCCCCNC(=O)NCCOCCN4CC[C@@H](NS(=O)(=O)c5ccc(O[C@H]6c7cc(Cl)cc(C#N)c7C[C@@H]6N6CCN[C@H](C)C6)cc5)C4)C3)cc2)CCN1 [Example 133, 4-([(1S,2S)-6-Chloro-4-cyano-2-[(R)-3-methylpiperazin-1-yl]-2,3-dihydro-1H-inden-1-yl]oxy)-N—[(R)-1-(20-[(R)-3-([4-([(1S,2S)-6-chloro-4-cyano-2-[(R)-3-methylpiperazin-1-yl]-2,3-dihydro-1H-inden-1-yl]oxy)phenyl]sulfonamido)pyrrolidin-1-yl]-7,14-dioxo-3,18-dioxa-6,8,13,15-tetraazaicosyl)pyrrolidin-3-yl]benzenesulfonamide; bis(trifluoroacetic acid)] |  |  | > 70 | < 40 |  |  | 3 | 3 |  |  |  | < 40 | 3 |
| N#Cc1cc(Cl)cc2c1C[C@H](N1CCNCC1)[C@H]2Oc1ccc(S(=O)(=O)N[C@H]2CCN(C(=O)CCCNC(=O)NCCCCNC(=O)NCCCC(=O)N3CC[C@H](NS(=O)(=O)c4ccc(O[C@H]5c6cc(Cl)cc(C#N)c6C[C@@H]5N5CCNCC5)cc4)C3)C2)cc1 [Example 143, 4-([(1S,2S)-6-Chloro-4-cyano-2-(piperazin-1-yl)-2,3-dihydro-1H-inden-1-yl]oxy)-N—[(S)-1-(18-[(S)-3-([4-([(1S,2S)-6-chloro-4-cyano-2-(piperazin-1-yl)-2,3-dihydro-1H-inden-1-yl]oxy)phenyl]sulfonamido)pyrrolidin-1-yl]-6,13,18-trioxo-5,7,12,14-tetraazaoctadecanoyl)pyrrolidin-3-yl]benzenesulfonamide] |  |  | 40 to 70 | < 40 |  |  | 3 | 3 |  |  |  | < 40 | 4 |
